Results from patent US20260297092A1, “PYRAZOLOPYRIMIDINE DERIVATIVES AS INHIBITORS OF NLRP3” (Takeda Pharmaceutical Company Limited, priority 2023, published 2026).

Assays:
[1] = tested on: TNF-α (NF-κB pathway, THP-1 cells); experiment: TNF-α Assay (IC50); type: cell-based, human; conditions: Homo sapiens, 600 ng/mL LPS, 3 hours
Outline: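 THP-1 cells differentiated to macrophages with 25 ng/mL IFN for 24 h, plated 40,000/well in serum-free medium, preincubated with compounds 30 min at 37 °C, then stimulated with 600 ng/mL LPS for 3 h. Supernatant TNF-α measured by ELISA; IC50 from four-parameter logistic fit, 100% inhibition defined by TPCA-1.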

[2] = tested on: NLRP3 inflammasome (IL-1β production in THP-1 cells); experiment: IL-1β TR-FRET Assay (percentage of inhibition at 300 nM, 6 μM or 10 μM); type: cell-based, human; conditions: Homo sapiens, LPS priming, ATP activation; for inhibition at 0.3 µM: THP-1, 300 nM, read-out: IL-1β inhibitory rate at 300 nM (%); for inhibition at 6 µM: THP-1, 6 μM, read-out: IL-1β inhibitory rate at 6 μM (%); for inhibition at 10 µM: THP-1, 10 μM, read-out: IL-1β inhibitory rate at 10 μM (%)
Outline: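 THP-1 cells were differentiated with 25 ng/mL IFN-γ for 24 h, primed with 50 ng/mL LPS in serum-free medium for 24 h, then given compound for 30 min before 20 mM ATP for 2 h. Supernatant IL-1β was measured by HTRF after 16-24 h at room temperature. Inhibition was normalized between DMSO (high) and 3 μM MCC-950 (low).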

Compound	IC50 [1] [µM]	inhibition at 0.3 µM [2] [%]	inhibition at 6 µM [2] [%]	inhibition at 10 µM [2] [%]
CCOc1nc2nn(-c3c(C)cc(C4CC4)cc3COC)cc2c(=O)[nH]1 [Example 164, 2-[4-cyclopropyl-2-(methoxymethyl)-6-methylphenyl]-6-ethoxy-2,5-dihydro-4H-pyrazolo[3,4-d]pyrimidin-4-one]	> 30	95	–	–
COc1nc2nn(-c3c(C)cc(OC(F)F)cc3C(F)F)cc2c(=O)[nH]1 [Example 284, 2-[4-(difluoromethoxy)-2-(difluoromethyl)-6-methylphenyl]-6-methoxy-2,5-dihydro-4H-pyrazolo[3,4-d]pyrimidin-4-one]	> 30	–	103	–
Cc1cc(C2CC2)cc(C)c1-n1cc2c(=O)[nH]c(COC(F)(F)F)nc2n1 [Example 202, 2-(4-cyclopropyl-2,6-dimethylphenyl)-6-[(trifluoro-methoxy)methyl]-2,5-dihydro-4H-pyrazolo[3,4-d]pyrimidin-4-one]	> 30	97	–	–
COc1nc2nn(-c3c(F)cc(C4(F)CC4)cc3Br)cc2c(=O)[nH]1 [Example 204, 2-[2-bromo-6-fluoro-4-(1-fluorocyclopropyl)phenyl]-6-methoxy-2,5-dihydro-4H-pyrazolo[3,4-d]pyrimidin-4-one]	> 30	98	–	–
CCOc1nc2nn(-c3c(F)cc(C4CC4)cc3C(O)C(F)(F)F)cc2c(=O)[nH]1 (racemic) [Example 192, 2-[4-cyclopropyl-2-fluoro-6-(2,2,2-trifluoro-1-hydroxyethyl)phenyl]-6-ethoxy-2,5-dihydro-4H-pyrazolo[3,4-d]pyrimidin-4-one]	> 30	95	–	–
COC1(c2nc3nn(-c4c(C)cc(C)cc4O)cc3c(=O)[nH]2)CCC1 [Example 35, 2-(2-hydroxy-4,6-dimethylphenyl)-6-(1-methoxycyclobutyl)-2,5-dihydro-4H-pyrazolo[3,4-d]pyrimidin-4-one]	> 30	96	–	–
CCOc1nc2nn(-c3c(C)cc(CC(F)(F)F)cc3F)cc2c(=O)[nH]1 [Example 156, 6-ethoxy-2-[2-fluoro-6-methyl-4-(2,2,2-trifluoroethyl)phenyl]-2,5-dihydro-4H-pyrazolo[3,4-d]pyrimidin-4-one]	> 30	–	–	97
CCOc1nc2nn(-c3c(C)cc(C4CC4)cc3Br)cc2c(=O)[nH]1 [Example 151, 2-(2-bromo-4-cyclopropyl-6-methylphenyl)-6-ethoxy-2,5-dihydro-4H-pyrazolo[3,4-d]pyrimidin-4-one]	> 30	98	–	–
CCOc1nc2nn(-c3c(C)cc(OC)cc3Br)cc2c(=O)[nH]1 [Example 143, 2-(2-bromo-4-methoxy-6-methylphenyl)-6-ethoxy-2,5-dihydro-4H-pyrazolo[3,4-d]pyrimidin-4-one]	> 30	93	–	–
CCOc1nc2nn(-c3c(C)cc(OC(F)F)cc3Br)cc2c(=O)[nH]1 [Example 142, 2-[2-bromo-4-(difluoromethoxy)-6-methylphenyl]-6-ethoxy-2,5-dihydro-4H-pyrazolo[3,4-d]pyrimidin-4-one]	> 30	93	–	–
Cc1cc(C)c(-n2cc3c(=O)[nH]c(C4CC4)nc3n2)c(O)c1 [Example 6, 6-cyclopropyl-2-(2-hydroxy-4,6-dimethylphenyl)-2,5-dihydro-4H-pyrazolo[3,4-d]pyrimidin-4-one]	> 30	98	–	–
Cc1cc(C2CC2)cc(C)c1-n1cc2c(=O)[nH]c(CC(F)(F)F)nc2n1 [Example 211, 2-(4-cyclopropyl-2,6-dimethylphenyl)-6-(2,2,2-trifluoroethyl)-2,5-dihydro-4H-pyrazolo[3,4-d]pyrimidin-4-one]	> 30	107	–	–
Cc1ccc(-n2cc3c(=O)[nH]c(OC4CC5(COC5)C4)nc3n2)c(C)c1 [Example 199, 2-(2,4-dimethylphenyl)-6-[(2-oxaspiro[3.3]heptan-6-yl)oxy]-2,5-dihydro-4H-pyrazolo[3,4-d]pyrimidin-4-one]	> 30	52	–	–
COc1nc2nn(-c3c(C)cc(Br)cc3C)cc2c(=O)[nH]1 [Example 138, 2-(4-bromo-2,6-dimethylphenyl)-6-methoxy-2,5-dihydro-4H-pyrazolo[3,4-d]pyrimidin-4-one]	> 30	93	–	–
COc1ccc(-c2nc3nn(-c4c(C)cc(C)cc4O)cc3c(=O)[nH]2)nc1 [Example 21, 2-(2-hydroxy-4,6-dimethylphenyl)-6-(5-methoxypyridin-2-yl)-2,5-dihydro-4H-pyrazolo[3,4-d]pyrimidin-4-one]	> 30	98	–	–
COCCOc1nc2nn(-c3c(C)cc(C4(F)CC4)cc3C)cc2c(=O)[nH]1 [Example 246, 2-[4-(1-fluorocyclopropyl)-2,6-dimethylphenyl]-6-(2-methoxyethoxy)-2,5-dihydro-4H-pyrazolo[3,4-d]pyrimidin-4-one]	> 30	–	101	–
Cc1cc(-c2nc3nn(-c4c(C)cc(C5CC5)cc4C)cc3c(=O)[nH]2)on1 [Example 275, 2-(4-cyclopropyl-2,6-dimethylphenyl)-6-(3-methyl-1,2-oxazol-5-yl)-2,5-dihydro-4H-pyrazolo[3,4-d]pyrimidin-4-one]	2.26	–	101	–
CCOc1nc2nn(-c3c(C)cc(C)cc3O)c(Cl)c2c(=O)[nH]1 [Example 26, 3-chloro-6-ethoxy-2-(2-hydroxy-4,6-dimethylphenyl)-2,5-dihydro-4H-pyrazolo[3,4-d]pyrimidin-4-one]	> 30	94	–	–
COC1(c2nc3nn(-c4c(C)cc(C5CC5)cc4C)cc3c(=O)[nH]2)CCC1 [Example 277, 2-(4-cyclopropyl-2,6-dimethylphenyl)-6-(1-methoxycyclobutyl)-2,5-dihydro-4H-pyrazolo[3,4-d]pyrimidin-4-one]	> 30	–	96	–
CCOc1nc2nn(-c3c(C)cc(C(F)(F)F)cc3F)cc2c(=O)[nH]1 [Example 64, 6-ethoxy-2-[2-fluoro-6-methyl-4-(trifluoromethyl)phenyl]-2,5-dihydro-4H-pyrazolo[3,4-d]pyrimidin-4-one]	> 30	100	–	–
CCOc1nc2nn(-c3c(C)cc(-n4cccn4)cc3C)cc2c(=O)[nH]1 [Example 139, 2-[2,6-dimethyl-4-(1H-pyrazol-1-yl)phenyl]-6-ethoxy-2,5-dihydro-4H-pyrazolo[3,4-d]pyrimidin-4-one]	> 30	–	–	95
CCOc1nc2nn(-c3c(C(F)(F)F)cc(C4CC4)nc3C)cc2c(=O)[nH]1 [Example 269, 2-[6-cyclopropyl-2-methyl-4-(trifluoromethyl)pyridin-3-yl]-6-ethoxy-2,5-dihydro-4H-pyrazolo[3,4-d]pyrimidin-4-one]	> 30	–	100	–
CO[C@H](C)COc1nc2nn(-c3c(F)cc(C4CC4)cc3C(F)F)cc2c(=O)[nH]1 [Example 200, 2-[4-cyclopropyl-2-(difluoromethyl)-6-fluorophenyl]-6-[(2R)-2-methoxypropoxy]-2,5-dihydro-4H-pyrazolo[3,4-d]pyrimidin-4-one]	> 30	98	–	–
CCOc1nc2nn(-c3c(F)cc(OC(F)F)cc3C(F)F)cc2c(=O)[nH]1 [Example 163, 2-[4-(difluoromethoxy)-2-(difluoromethyl)-6-fluorophenyl]-6-ethoxy-2,5-dihydro-4H-pyrazolo[3,4-d]pyrimidin-4-one]	> 30	97	–	–
CCOc1nc2nn(-c3c(C)cc(Br)cc3-n3cccn3)cc2c(=O)[nH]1 [Example 144, 2-[4-bromo-2-methyl-6-(1H-pyrazol-1-yl)phenyl]-6-ethoxy-2,5-dihydro-4H-pyrazolo[3,4-d]pyrimidin-4-one]	> 30	96	–	–
CCOc1nc2nn(-c3c(C)cc(OC)cc3F)cc2c(=O)[nH]1 [Example 121, 6-ethoxy-2-(2-fluoro-4-methoxy-6-methylphenyl)-2,5-dihydro-4H-pyrazolo[3,4-d]pyrimidin-4-one]	> 30	97	–	–
CCOc1nc2nn(-c3c(O)cc(C)cc3OC(F)F)cc2c(=O)[nH]1 [Example 116, 2-[2-(difluoromethoxy)-6-hydroxy-4-methylphenyl]-6-ethoxy-2,5-dihydro-4H-pyrazolo[3,4-d]pyrimidin-4-one]	> 30	96	–	–
CCOc1nc2nn(-c3ccc(C)cc3O)c(Cl)c2c(=O)[nH]1 [Example 31, 3-chloro-6-ethoxy-2-(2-hydroxy-4-methylphenyl)-2,5-dihydro-4H-pyrazolo[3,4-d]pyrimidin-4-one]	> 30	99	–	–
Cc1ncc(-c2nc3nn(-c4c(C)cc(C5CC5)cc4C)cc3c(=O)[nH]2)o1 [Example 273, 2-(4-cyclopropyl-2,6-dimethylphenyl)-6-(2-methyl-1,3-oxazol-5-yl)-2,5-dihydro-4H-pyrazolo[3,4-d]pyrimidin-4-one]	> 30	–	99	–
CCOc1nc2nn(-c3ccc(C(F)(F)F)cc3O)c(C)c2c(=O)[nH]1 [Example 59, 6-ethoxy-2-[2-hydroxy-4-(trifluoromethyl)phenyl]-3-methyl-2,5-dihydro-4H-pyrazolo[3,4-d]pyrimidin-4-one]	> 30	98	–	–
